Laboratory results: patent US10039753B2, “Imidazo[4,5-c]quinoline and imidazo[4,5-c][1,5]naphthyridine derivatives as LRRK2 inhibitors” (Pfizer Inc., priority 2015, dated 2018)
Where a name gives a salt, the structure may show the parent alone.

Tests used:
[1] = target: T1, GST-tagged truncated LRRK2 (Homo sapiens, UniProt Q5S007); test: LRRK2 Assay, Format 2 (Lantha Screen), WT; assay type: biochemical; conditions: geometric mean of 2-4 determinations unless otherwise indicated (a: >=5; b: single determination)
T1 construct: GST-tagged truncated LRRK2 from Invitrogen (Cat # PV4874); GST; purchased Invitrogen PV4874
Description: (§1) LRRK2 kinase activity was measured using Lantha Screen technology from Invitrogen. GST-tagged truncated LRRK2 from Invitrogen (Cat # PV4874) was incubated with a fluorescein-labeled peptide substrate based upon ezrin/radixin/moesin (ERM), also known as LRRKtide (Invitrogen cat # PR8976A), in the presence of a dose response of compound. Upon completion, the assay was stopped and detected with a terbium labeled anti-phospho-ERM antibody (Invitrogen, cat # PR8975A). […] Using Echo acoustic dispensing, 60 nL of compound was transferred to a low volume Corning 384-well assay plate. 3 μL of a working solution of substrate (200 nM LRRKtide, […]) prepared in assay buffer (50 mM HEPES, pH 7.5, 3 mM MgCl2, with 2 mM DTT and 0.01% Brij35 added fresh) was added to the 60 nL compound assay plate. The kinase reaction was started with […] of a working solution of LRRK2 enzyme at a concentration of […]. The final reaction concentrations were 100 nM LRRKtide, […], […] LRRK2 enzyme and a compound dose response with a top dose of 3 mM. The reaction was allowed to progress at room temperature for 30 minutes and then stopped with the addition of […] of detection buffer (20 mM Tris pH 7.6, 0.01% NP-40, 6 mM EDTA with 2 nM terbium labeled anti-phospho-ERM). After an incubation of 1 hour at room temperature, the plate was read on an Envision with an excitation wavelength of 340 nm and a reading emission at both 520 nm and 495 nm. The ratio of the 520 nm and 495 nm emission was used to analyze the data. Inhibition of mutant G2019S LRRK2 (Invitrogen cat # PV4881) was measured in the exact same method. All final concentrations of substrate ATP and enzyme were the same.

mutant G2019S LRRK2 = mutant G2019S LRRK2 (Homo sapiens, UniProt Q5S007, G2019S); test: LRRK2 Assay, Format 2 (Lantha Screen), G2019S mutant; assay type: biochemical; design: purchased Invitrogen PV4881; conditions: geometric mean of 2-4 determinations unless otherwise indicated (a: >=5; b: single determination); read-out: LRRK2, Format 2 G2019S IC50
Description: as §1

mutant G2019S LRRK2, sequence (Q5S007 970-2527 G2019S limits assumed): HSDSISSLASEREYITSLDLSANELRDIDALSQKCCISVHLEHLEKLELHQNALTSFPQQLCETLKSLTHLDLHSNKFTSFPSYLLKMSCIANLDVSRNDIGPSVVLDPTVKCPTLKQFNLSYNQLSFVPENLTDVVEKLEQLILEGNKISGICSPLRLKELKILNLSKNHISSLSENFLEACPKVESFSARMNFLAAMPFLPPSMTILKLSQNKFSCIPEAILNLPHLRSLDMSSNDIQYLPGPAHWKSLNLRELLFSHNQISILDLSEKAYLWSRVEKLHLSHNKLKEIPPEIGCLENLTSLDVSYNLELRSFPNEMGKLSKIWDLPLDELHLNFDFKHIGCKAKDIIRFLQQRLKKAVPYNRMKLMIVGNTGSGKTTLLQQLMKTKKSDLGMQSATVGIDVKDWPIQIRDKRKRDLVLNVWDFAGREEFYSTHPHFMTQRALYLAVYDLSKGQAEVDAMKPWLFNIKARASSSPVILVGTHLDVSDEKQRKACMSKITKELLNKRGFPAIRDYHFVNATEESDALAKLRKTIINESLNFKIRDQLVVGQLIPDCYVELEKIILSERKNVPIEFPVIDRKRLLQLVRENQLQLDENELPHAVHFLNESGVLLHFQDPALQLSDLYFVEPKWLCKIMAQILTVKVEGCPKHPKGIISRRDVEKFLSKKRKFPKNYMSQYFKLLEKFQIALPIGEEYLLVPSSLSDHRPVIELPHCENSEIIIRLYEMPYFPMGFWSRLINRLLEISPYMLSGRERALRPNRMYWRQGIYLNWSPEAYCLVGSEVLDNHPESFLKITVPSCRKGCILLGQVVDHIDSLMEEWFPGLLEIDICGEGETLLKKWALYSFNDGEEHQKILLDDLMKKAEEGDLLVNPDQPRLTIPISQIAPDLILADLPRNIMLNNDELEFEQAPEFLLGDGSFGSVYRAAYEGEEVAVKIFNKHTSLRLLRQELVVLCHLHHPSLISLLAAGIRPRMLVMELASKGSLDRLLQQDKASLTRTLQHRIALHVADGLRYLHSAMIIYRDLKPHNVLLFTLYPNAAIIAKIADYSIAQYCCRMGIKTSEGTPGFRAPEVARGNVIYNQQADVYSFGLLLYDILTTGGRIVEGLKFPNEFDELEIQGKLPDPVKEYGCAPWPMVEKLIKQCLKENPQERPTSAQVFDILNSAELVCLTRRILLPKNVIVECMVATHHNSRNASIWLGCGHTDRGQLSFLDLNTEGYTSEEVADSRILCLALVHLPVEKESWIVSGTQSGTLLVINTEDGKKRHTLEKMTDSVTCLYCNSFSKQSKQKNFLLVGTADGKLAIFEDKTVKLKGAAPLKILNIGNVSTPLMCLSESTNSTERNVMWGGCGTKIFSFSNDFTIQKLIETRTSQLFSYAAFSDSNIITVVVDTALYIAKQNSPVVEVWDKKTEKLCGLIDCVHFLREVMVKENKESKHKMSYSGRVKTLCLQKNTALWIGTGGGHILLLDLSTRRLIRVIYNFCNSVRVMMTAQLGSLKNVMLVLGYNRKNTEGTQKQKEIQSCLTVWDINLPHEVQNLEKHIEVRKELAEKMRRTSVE
T1 sequence (Q5S007 970-2527 limits assumed): as the sequence (Q5S007 970-2527 G2019S limits assumed) above, with S1050G counted along it

IC50 [1] [nM] | IC50 (mutant G2019S LRRK2) [nM] | Structure (SMILES)
11.6 | 8.48 | Cc1nc(Cc2nc3cnc4ccc(C#N)cc4c3n2[C@@H]2CCO[C@H](C)C2)c(C)o1 [Example 230, 2-[(2,5-dimethyl-1,3-oxazol-4-yl)methyl]-1-[(2R,4R)-2-methyltetrahydro-2H-pyran-4-yl]-1H-imidazo[4,5-c]quinoline-8-carbonitrile, formate salt]
6.04 | 5.34 | C[C@@H]1C[C@H](n2c(Cc3nc4ccccc4o3)nc3cnc4ccc(C#N)cc4c32)CCO1 [Example 153, 2-(1,3-benzoxazol-2-ylmethyl)-1-[(2R,4R)-2-methyltetrahydro-2H-pyran-4-yl]-1H-imidazo[4,5-c]quinoline-8-carbonitrile, formate salt]
3.38 | 7.03 | Cc1cc(Cc2nc3cnc4ccc(C#N)cc4c3n2[C@@H]2CCN(C)C2)no1 [Example 213, 2-[(5-methyl-1,2-oxazol-3-yl)methyl]-1-[(3R)-1-methylpyrrolidin-3-yl]-1H-imidazo[4,5-c]quinoline-8-carbonitrile, formate salt]
7.23 | 8.7 | CC(F)(F)Cn1c(Cn2ccc(C3CC3)n2)nc2cnc3ccc(C#N)cc3c21 [Example 225, 2-[(3-cyclopropyl-1H-pyrazol-1-yl)methyl]-1-(2,2-difluoropropyl)-1H-imidazo[4,5-c]quinoline-8-carbonitrile]
46.7 | 69.4 | Cc1cc(Cc2nc3cnc4ccc(C#N)cc4c3n2CC(F)F)no1 [Example 228, 1-(2,2-difluoroethyl)-2-[(5-methyl-1,2-oxazol-3-yl)methyl]-1H-imidazo[4,5-c]quinoline-8-carbonitrile]
3.19 | 2.89 | Cc1cc(Cc2nc3cnc4ccc(Cl)cc4c3n2[C@@H]2CCO[C@H](CF)C2)no1 [Example 221, 8-chloro-1-[(2S,4R)-2-(fluoromethyl)tetrahydro-2H-pyran-4-yl]-2-[(5-methyl-1,2-oxazol-3-yl)methyl]-1H-imidazo[4,5-c]quinoline]
14.3 | 11.9 | Cc1ccn(Cc2nc3cnc4ccc(C#N)cc4c3n2[C@@H]2CCO[C@H](C)C2)n1 [Example 233, 2-[(3-methyl-1H-pyrazol-1-yl)methyl]-1-[(2R,4R)-2-methyltetrahydro-2H-pyran-4-yl]-1H-imidazo[4,5-c]quinoline-8-carbonitrile, formate salt]
12.8 | 18.7 | N#Cc1ccc2ncc3nc(Cc4cc(C(F)(F)F)on4)n([C@@H]4CC[C@H](F)C4)c3c2c1 (single isomer, unassigned; ent-1) [Example 211, 1-(cis-3-fluorocyclopentyl)-2-{[5-(trifluoromethyl)-1,2-oxazol-3-yl]methyl}-1H-imidazo[4,5-c]quinoline-8-carbonitrile, ENT-1]
34.3 | 22.8 | CCC(F)(F)Cn1c(Cc2cnccn2)nc2cnc3ccc(Cl)cc3c21 [Example 184, 8-chloro-1-(2,2-difluorobutyl)-2-(pyrazin-2-ylmethyl)-1H-imidazo[4,5-c]quinoline]
4.74 | 5.01 | Cc1ccc(Cc2nc3cnc4ccc(Cl)cc4c3n2[C@@H]2CCO[C@H](C)C2)nc1 [Example 100, 8-Chloro-2-[(5-methylpyridin-2-yl)methyl]-1-[(2R,4R)-2-methyltetrahydro-2H-pyran-4-yl]-1H-imidazo[4,5-c]quinoline]
8.02 | 9.93 | CCc1cnn(Cc2nc3cnc4ccc(C#N)cc4c3n2CC(C)(F)F)c1 [Example 209, 1-(2,2-difluoropropyl)-2-[(4-ethyl-1H-pyrazol-1-yl)methyl]-1H-imidazo[4,5-c]quinoline-8-carbonitrile]
14.1 | 12 | Cc1cc(Cc2nc3cnc4ccc(Cl)cc4c3n2[C@@H]2CCO[C@H](CO)C2)no1 [Example 137, [(2S,4R)-4-{8-chloro-2-[(5-methyl-1,2-oxazol-3-yl)methyl]-1H-imidazo[4,5-c]quinolin-1-yl}tetrahydro-2H-pyran-2-yl]methanol]
6.23 | 6.36 | C[C@@H]1C[C@H](n2c(Cn3ccc(C4CC4)n3)nc3cnc4ccc(Cl)cc4c32)CCO1 [Example 160, 8-chloro-2-[(3-cyclopropyl-1H-pyrazol-1-yl)methyl]-1-[(2R,4R)-2-methyltetrahydro-2H-pyran-4-yl]-1H-imidazo[4,5-c]quinoline, formate salt]
9.25 | 8.91 | Cc1nc(Cc2nc3cnc4ccc(C#N)cc4c3n2[C@@H]2CCO[C@H](C)C2)no1 [Example 123, 2-[(5-methyl-1,2,4-oxadiazol-3-yl)methyl]-1-[(2R,4R)-2-methyltetrahydro-2H-pyran-4-yl]-1H-imidazo[4,5-c]quinoline-8-carbonitrile]
14 | 12.6 | COc1cnn(Cc2nc3cnc4ccc(F)cc4c3n2[C@@H]2CCO[C@H](C)C2)c1 [Example 179, 8-fluoro-2-[(4-methoxy-1H-pyrazol-1-yl)methyl]-1-[(2R,4R)-2-methyltetrahydro-2H-pyran-4-yl]-1H-imidazo[4,5-c]quinoline]
12.2 | 16.3 | N#Cc1ccc2ncc3nc(Cc4cscn4)n([C@@H]4CC[C@H](F)C4)c3c2c1 (single isomer, unassigned; ent-1) [Example 203, 1-(cis-3-fluorocyclopentyl)-2-(1,3-thiazol-4-ylmethyl)-1H-imidazo[4,5-c]quinoline-8-carbonitrile, ENT-1]
10.7 | 9.5 | Cc1nc(Cc2nc3cnc4ccc(C#N)cc4c3n2[C@@H]2CCO[C@H](C)C2)cs1 [Example 234, 1-[(2R,4R)-2-methyltetrahydro-2H-pyran-4-yl]-2-[(2-methyl-1,3-thiazol-4-yl)methyl]-1H-imidazo[4,5-c]quinoline-8-carbonitrile, formate salt]
7.11 | 5.63 | C[C@@H]1C[C@H](n2c(Cc3cccnn3)nc3cnc4ccc(Cl)cc4c32)CCO1 [Example 142, 8-chloro-1-[(2R,4R)-2-methyltetrahydro-2H-pyran-4-yl]-2-(pyridazin-3-ylmethyl)-1H-imidazo[4,5-c]quinoline]
25.1 | 40.8 | Cc1cc(Cc2nc3cnc4ccc(C#N)cc4c3n2C2CCCC2)no1 [Example 152, 1-cyclopentyl-2-[(5-methyl-1,2-oxazol-3-yl)methyl]-1H-imidazo[4,5-c]quinoline-8-carbonitrile, formate salt]
12.6 |  | C[C@@H]1C[C@H](n2c(Cc3cn4c(n3)COCC4)nc3cnc4ccc(Cl)cc4c32)CCO1 [Example 192, 8-chloro-2-(5,6-dihydro-8H-imidazo[2,1-c][1,4]oxazin-2-ylmethyl)-1-[(2R,4R)-2-methyltetrahydro-2H-pyran-4-yl]-1H-imidazo[4,5-c]quinoline]
99.5 |  | Cc1cc(Cc2nc3cnc4ccc(Cl)cc4c3n2CCF)no1 [Example 181, 8-chloro-1-(2-fluoroethyl)-2-[(5-methyl-1,2-oxazol-3-yl)methyl]-1H-imidazo[4,5-c]quinoline]
53.9 |  | Cc1cc(Cc2nc3cnc4ccc(C#N)cc4c3n2C2CCCC2(F)F)no1 (single isomer, unassigned; ent-1) [Example 143, 1-(2,2-difluorocyclopentyl)-2-[(5-methyl-1,2-oxazol-3-yl)methyl]-1H-imidazo[4,5-c]quinoline-8-carbonitrile, ENT-1]
73.2 |  | CCC(F)(F)Cn1c(Cc2noc(C)n2)nc2cnc3ccc(Cl)cc3c21 [Example 185, 8-chloro-1-(2,2-difluorobutyl)-2-[(5-methyl-1,2,4-oxadiazol-3-yl)methyl]-1H-imidazo[4,5-c]quinoline]
67.4 |  | FCCn1c(Cc2cnccn2)nc2cnc3ccc(Cl)cc3c21 [Example 182, 8-chloro-1-(2-fluoroethyl)-2-(pyrazin-2-ylmethyl)-1H-imidazo[4,5-c]quinoline]
110 |  | CO[C@H]1C[C@H](n2c(Cn3cc(C)nn3)nc3cnc4ccc(Cl)cc4c32)C1 [Example 188, 8-chloro-1-[(1r,3r)-3-methoxycyclobutyl]-2-[(4-methyl-1H-1,2,3-triazol-1-yl)methyl]-1H-imidazo[4,5-c]quinoline]
73.5 |  | C[C@@H]1C[C@H](n2c(Cc3nc(C4CC4)n(C)n3)nc3cnc4ccc(Cl)cc4c32)CCO1 [Example 191, 8-chloro-2-[(5-cyclopropyl-1-methyl-1H-1,2,4-triazol-3-yl)methyl]-1-[(2R,4R)-2-methyltetrahydro-2H-pyran-4-yl]-1H-imidazo[4,5-c]quinoline]
